Like-named read-outs stand apart in the source and are kept apart here.
Columns and labels:
[1] = Cytotoxicity, inhibition of MT-2 cell growth; settings: human
MT-2 human T-cells = assay: Cytotoxicity, inhibition of MT-2 cell growth; settings: read-out: cytotoxicity (CC50); Table 4; human MT-2 cells
HIV-1 Y181C variant [2] = assay: microbe, parasite or virus in culture; assay type: cell-based
[3] = tested on: HIV-1 K103N/Y181C variant; assay: microbe, parasite or virus in culture; assay type: cell-based
wild-type HIV-1 = settings: MT-4 cells; Janssen 2005 / Ludovici 2001; read-out: previously reported EC50, wild-type; cited from earlier work
HIV-1 Y181C variant [4] = settings: MT-4 cells; Janssen 2005 / Ludovici 2001; read-out: previously reported EC50, Y181C; cited from earlier work
[5] = tested on: HIV-1 K103N/Y181C variant; settings: MT-4 cells; Janssen 2005 / Ludovici 2001; read-out: previously reported EC50, K103N/Y181C; cited from earlier work
[6] = Aqueous solubility, literature reports; assay type: physicochemical; settings: translated from 20 ng/mL at pH 7.0

## Cc1ccnc2c1NC(=O)c1cccnc1N2C1CC1 [nevirapine]
[1]
  CC50: > 100000 nM
MT-2 human T-cells
  CC50: > 100000 nM

## Cc1cc(C)c(Nc2ccnc(Nc3ccc(C#N)cc3)n2)c(C)c1 [Compound 10a, dapivirine, reference compound]
HIV-1 Y181C variant [2]; Human immunodeficiency virus 1, MT2, read-out: EC50, Y181C variant
  EC50: 39 nM
HIV-1 Y181C variant [2]; Human immunodeficiency virus 1, MT2, read-out: EC50 Y181C
  EC50: 39 nM
[3]; Human immunodeficiency virus 1, MT2, read-out: EC50, K103N/Y181C variant
  EC50: 39 nM
[3]; Human immunodeficiency virus 1, MT2, read-out: EC50 K103N/Y181C
  EC50: 39 nM
wild-type HIV-1
  EC50: 1.2 nM
HIV-1 Y181C variant [4]
  EC50: 7 nM
[5]
  EC50: 54 nM
MT-2 human T-cells
  CC50: 2000 nM

## Cc1cc(/C=C/C#N)cc(C)c1Nc1ccnc(Nc2ccc(C#N)cc2)n1 [rilpivirine, reference compound]
[6]
  S: 50 nM
